In data set [1] the test system is Trichoderma reesei cellulase composition. In words: Nitrogen-containing compound effect(no GH61) on hydrolysis of AVICEL by T. reesei cellulase composition. The class given is biochemical. The following applies: for reduction in hydrolysis: no GH61. The protocol: The concentration of 1,2-benzenediamine compounds was 5 mM and the concentration of 2-aminophenol was 1 mM.
The concentration of nitrogen-containing compounds was 5 mM.
(§1) The concentration of the GH61 polypeptide was either 0.4 or 2 mg per g cellulose.

Data set [2] deals with Penicillium pinophilum GH61A polypeptide. In words: Effect of TEMPO on P. pinophilum GH61A during AVICEL hydrolysis by T. reesei cellulase composition. The format is biochemical. The following applies: GH61 0.4 or 2 mg per g cellulose, day 7. On the procedure:
as §1

Data set [3] addresses Aspergillus fumigatus GH61B polypeptide (Aspergillus fumigatus, UniProt Q4WP32). The data set can be described thus: Effect of TEMPO on A. fumigatus GH61B during AVICEL hydrolysis by T. reesei cellulase composition. The class given is biochemical. The settings on record: GH61 0.4 or 2 mg per g cellulose, day 7. On the procedure:
as §1

Data set [4] relates to Talaromyces stipitatus GH61 polypeptide. In words: Effect of TEMPO on T. stipitatus GH61 during AVICEL hydrolysis by T. reesei cellulase composition. The format is biochemical. The settings on record: GH61 0.4 or 2 mg per g cellulose, day 7. The protocol: as §1
Data set [5] addresses Trichoderma reesei GH61B polypeptide (Trichoderma reesei, UniProt Q7Z9M7). In words: Effect of TEMPO on T. reesei GH61B during AVICEL hydrolysis by T. reesei cellulase composition. The settings on record: GH61 0.4 or 2 mg per g cellulose, day 7. The format is biochemical. On the procedure:
as §1

Data set [6] deals with Thielavia terrestris GH61E polypeptide. In words: Effect of TEMPO on T. terrestris GH61E during AVICEL hydrolysis by T. reesei cellulase composition. The class given is biochemical. On the procedure:
as §1

Data set [7] deals with T. reesei cellulase composition. The data set can be described thus: AVICEL cellulolysis by T. reesei cellulase composition with combinations of compounds and various GH61 polypeptides. The format is biochemical, Trichoderma reesei.
Data set [8] deals with Trichoderma reesei cellulase composition. In words: Hydrolysis of AVICEL by T. reesei cellulase composition with and without GH61 polypeptide, no nitrogen-containing compound. The class given is biochemical. From the text: Microcrystalline cellulose was used as the source of the cellulosic material.
The mark [9] stands for this setting: Example 6, 5 mM compound, 14 mg/ml AVICEL, 1, 3, 5, 7 or 8 days (FIG. 2 white bars).
[10] abbreviates: pterin dissolved in DMSO, cellulose 29.5 mg per ml, 7 days.

Chain of Trichoderma reesei GH61B polypeptide (Q7Z9M7 20-249): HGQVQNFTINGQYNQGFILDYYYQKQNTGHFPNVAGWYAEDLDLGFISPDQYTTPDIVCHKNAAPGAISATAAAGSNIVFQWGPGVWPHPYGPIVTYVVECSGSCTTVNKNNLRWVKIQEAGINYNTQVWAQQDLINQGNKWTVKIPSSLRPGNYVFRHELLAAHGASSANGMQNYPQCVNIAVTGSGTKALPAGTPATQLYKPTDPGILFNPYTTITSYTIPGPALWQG

Regarding `Nc1ccccc1N` [1,2-benzenediamine], the “nitrogen-containing compound effect(no GH61)” value in data set [1] (5 mM compound, 14 mg/ml AVICEL, 1, 5 and 8 days (FIG. 1A)) was “less than 1”.

Regarding `CC1(C)CCCC(C)(C)N1[O]` [TEMPO, 2,2,6,6-tetramethyl-1-piperidinyloxy], the “nitrogen-containing compound effect(no GH61)” value in data set [1] (setting [9]) is “less than 1”; in data set [1] (Example 7, TEMPO, late stage of hydrolysis, day 7 (FIGS. 3A, 3B)), “less than 1”. Moreover, the GH61 effect result is reported as “greater than 1” in data set [2]; “greater than 1” in data set [3]; “greater than 1” in data set [4]; “greater than 1” in data set [5]; “greater than 1” in data set [6] (GH61 0.4 or 2 mg per g cellulose, day 1). Further, the “nitrogen-containing compound effect(+GH61)” value in data set [2] is on record as “less than 1”; in data set [3] (late stage), “less than 1”; in data set [4] it was “less than 1”; in data set [5], “less than 1”; in data set [6] (GH61 0.4 or 2 mg per g cellulose, 1, 3 and 7 days), about 1.

Consider `C[C@H](O)[C@H](O)[C@H]1CNc2nc(N)[nH]c(=O)c2N1.Cl.Cl` [(6R)-5,6,7,8-tetrahydrobiopterin dihydrochloride], for which the “nitrogen-containing compound effect(no GH61)” value stood at 0.924±0.0191 in data set [1] (pterin dissolved in DMSO, cellulose 29.5 mg per ml, 3 days) and 0.901±0.0332 in data set [1] (setting [10]).

As to `Nc1ccccc1O` [2-aminophenol], the “nitrogen-containing compound effect(no GH61)” value is 0.951±0.0198 in data set [1] (1 mM 2-aminophenol, cellulose 29.5 mg per ml, 3 days) and 0.902±0.0301 in data set [1] (1 mM 2-aminophenol, cellulose 29.5 mg per ml, 7 days). Also, the reduction in hydrolysis entry in data set [1] (1 mM 2-aminophenol, 3 days) is given as “approximately 5%”; in data set [1] (1 mM 2-aminophenol, 7 days), “approximately 10%”.

Take `CC1Nc2nc(N)[nH]c(=O)c2NC1C.Cl` (stereo not shown) [6,7-dimethyl-5,6,7,8-tetrahydropterine hydrochloride]: the “nitrogen-containing compound effect(no GH61)” value in data set [1] (pterin dissolved in DMSO, cellulose 29.5 mg per ml, 1 day (so in the source)) is 0.715±0.00557; in data set [1] (setting [10]), 0.684±0.0203.

`ON=Cc1ccccn1` [pyridine-2-aldoxime]: the “nitrogen-containing compound effect(no GH61)” value in data set [1] (setting [9]) is recorded as “slightly decreased”.

In the case of `CC(C)=NO` [acetone oxime], the “nitrogen-containing compound effect(no GH61)” value in data set [1] (setting [9]) is on record as “less than 1”.

In the case of `O=C1NC(=O)C(=NO)C(=O)N1` [violuric acid], the “nitrogen-containing compound effect(no GH61)” value in data set [1] (setting [9]) is on record as “very slightly impacted”.

B1: A. fumigatus GH61B polypeptide: GH61 polypeptide having cellulolytic enhancing activity, SEQ ID NO: 30, recombinantly prepared in Aspergillus oryzae JaL355 (protein, listed as Aspergillus fumigatus)
chain: MTLSKITSIAGLLASASLVAGHGFVSGIVADGKYYGGYLVNQYPYMSNPPDTIAWSTTATDLGFVDGTGYQSPDIICHRDAKNGKLTATVAAGSQIEFQWTTWPESHHGPLITYLAPCNGDCATVDKTTLKFVKIAAQGLIDGSNPPGVWADDEMIANNNTATVTIPASYAPGNYVLRHEIIALHSAGNLNGAQNYPQCFNIQITGGGSAQGSGTAGTSLYKNTDPGIKFDIYSDLSGGYPIPGPALFNA
Regarding B1, in data set [7] (mixtures of compounds at 3 mM), the “overall conversion of AVICEL, comparison of GH61 polypeptides” value is given as “highest overall conversion”.

B2: T. aurantiacus GH61A polypeptide: GH61A polypeptide having cellulolytic enhancing activity, SEQ ID NO: 14, recombinantly prepared in Aspergillus oryzae JaL250 (protein, listed as Thermoascus aurantiacus)
chain: MSFSKIIATAGVLASASLVAGHGFVQNIVIDGKYYGGYLVNQYPYMSNPPEVIAWSTTATDLGFVDGTGYQTPDIICHRGAKPGALTAPVSPGGTVELQWTPWPDSHHGPVINYLAPCNGDCSTVDKTQLEFFKIAESGLINDDNPPGIWASDNLIAANNSWTVTIPTTIAPGNYVLRHEIIALHSAQNQDGAQNYPQCINLQVTGGGSDNPAGTLGTALYHDTDPGILINIYQKLSSYIIPGPPLYTG
For B2, the “Percent conversion of AVICEL” value in data set [8] (14 mg/ml AVICEL, cellulase 4 mg/g cellulose, GH61 0.4 mg/g where present, pH 5.0, 50° C., 1 day) came out at 16±1%; in data set [8] (same conditions, 3 days), 30±4%; in data set [8] (same conditions, 5 days), 42.7±0.9%; in data set [8] (same conditions, 7 days), 45±4%; in data set [8] (same conditions, 8 days), 52.9±0.8%. Besides, the “overall conversion of AVICEL, comparison of GH61 polypeptides” value in data set [7] (most mixtures of compounds at 1 mM) is “greatest overall conversion”.

Source of the values: patent publication US10087478B2, “Compositions comprising a polypeptide having cellulolytic enhancing activity and a nitrogen-containing compound and uses thereof” (priority 2010, dated 2018).
